Patent US10662164B2, “Non-beta lactam antibiotics” (University of Notre Dame du Lac, priority 2014, dated 2020)
Converted amounts (≈) assume the structure as drawn. Where two headings read alike, the source gives them in different places. Marks after values point to notes of the source that are not given here.

Tests used:
HepG2 cells = assay: XTT cytotoxicity assay; assay type: cell-based; settings: for IC50: Homo sapiens
Method: We used the XTT assay with HepG2 cells to evaluate the in vitro toxicity of compounds 60b, 60c, 65b, 66b, 75b and 76b (Table 2). […] Compared to the lead 1, indole 75b was 5-fold less toxic.
The XTT cytotoxicity assay was performed in triplicated using HepG2 cells (ATCC HB-8065), as previously described (Tran et al., Am. J. Clin. Dermatol. 2015; doi 10.1007/S40257-015-0125-9). The IC50 values were calculated with GraphPad Prism 5 (GraphPad Software, Inc., San Diego, Calif., USA).

S. aureus VRS1 = assay: MIC determination; assay type: cell-based; settings: Staphylococcus aureus
Description: (§1) The ESKAPE organisms (E. faecium NCTC (ATCC 19734), S. aureus ATCC 29213, K. pneumonia ATCC 700603, A. baumannii ATCC 17961, P. aeruginosa ATCC 17853, E. aerogenes ATCC 35029) and E. coli ATCC 25922) in the initial screen, S. aureus ATCC 27660, S. epidermis ATCC 35547, S. haemolyticus ATCC 29970, S. oralis ATCC 9811, S. pyogenes ATCC 49399, B. cereus ATCC 13061, B. licheniformis ATCC 12759, and E. faecalis ATCC 29212 were purchased from the American Type Culture Collection (Manassas, Va., USA). S. aureus strains NRS100, NRS119, NRS120, VRS1, and VRS2 were obtained from the Network on Antimicrobial Resistance in Staphylococcus aureus (Chantilly, Va., USA). E. faecalis strains 201 and 99, and E. faecium strains 119-39A and 106 were collected from Wayne State University School of Medicine.
(§2) The procedure for MIC determination was the same as previously reported (Tran et al., Am. J. Clin. Dermatol. 2015; doi 10.1007/S40257-015-0125-9).

S. pyogenes ATCC 49399 = assay: MIC determination; assay type: cell-based; settings: Streptococcus pyogenes, ATCC49399
Description: as §1, §2

S. aureus NRS100 (COL) = assay: MIC determination; assay type: cell-based; settings: Staphylococcus aureus
Description: as §1, §2

B. cereus ATCC 13061 = assay: MIC determination; assay type: cell-based; settings: Bacillus cereus, ATCC13061
Description: as §1, §2

[1] = system: S. haemolyticus ATCC 29970; assay: MIC determination; assay type: cell-based; settings: Staphylococcus haemolyticus, ATCC29970
Description: as §1, §2

S. epidermis ATCC 35547 = assay: MIC determination; assay type: cell-based
Description: as §1, §2

S. oralis ATCC 9811 = assay: MIC determination; assay type: cell-based; settings: Streptococcus oralis, ATCC9811
Description: as §1, §2

E. faecium NCTC 7171 = assay: MIC determination; assay type: cell-based, Enterococcus faecium; settings: Enterococcus faecium
S. aureus ATCC 29213 = assay: MIC determination; assay type: cell-based, Staphylococcus aureus; settings: for MIC: Staphylococcus aureus
[2] = Fast pharmacokinetic (PK) studies; assay type: in vivo, mouse
Method: To rapidly ascertain the PK properties of the compounds, fast PK studies were conducted. These studies involve administration of the compounds using a limited number of animals (n=2 mice per time point) for a few time points. This allows us to rapidly compare the preliminary PK properties of the compounds, so that full PK studies are conducted only with the most promising compound(s). […] The alkyne substituted pyrazole 66b had the lowest clearance and the highest systemic exposure, as measured by area under the curve (AUC, Table 2).
Female ICR mice (6-8 weeks old, ˜20-g body weight) were used for the PK and peritonitis studies. Animals were purchased from Harlan Laboratories, Inc. (Indianapolis, Ind., USA) and given Teklad 2019 Extruded Rodent Diet and water ad libitum. Mice were maintained in polycarbonate shoebox cages with ¼″ corncob (The Andersons Inc., Maumee, Ohio) and Alpha-dri (Sheperd Specialty Papers, Inc., Richland, Mich.) bedding under 12-h light/12-h dark cycle at 72±2° F.
For fast PK studies, the compounds were dissolved in 10% DMSO/25% Tween-80/65% water at a concentration of 5 mg/mL. The dosing formulations were sterilized by filtration through a 0.2 μm, 13 mm diameter PTFE membrane attached to an Acrodisc syringe filter (Pall Life Sciences, Ann Arbor, Mich., USA). […] Terminal blood was collected at 5 min, 40 min, 2 h, 4 h, and 8 h; blood was centrifuged at 1200 g for 10 min to harvest plasma.
Plasma ([…], aliquot) was mixed with 100 μL of acetonitrile containing internal standard (final concentration 8 μg/mL). After centrifugation at 10000 g for 10 min, the supernatant was analyzed by ultraperformance liquid chromatography (UPLC) with UV detection at 285 nm. A Waters Acquity UPLC System (Waters Corporation, Milford, Mass., USA), consisting of a binary pump, an autosampler, a column heater, and a photodiode array detector was used. An Acquity UPLC C18 1.7 μm, 2.1 mm i.d.×50 mm column was used. Elution was at 0.5 mL/min with 70% A/30% B for 2 min, followed by a 10-min linear gradient to 10% A/90% B, then 70% A/30% B for 2 min, where A=0.1% formic acid/water and B=0.1% formic acid/acetonitrile. Monitoring was by UV detection at 285 nm. Calibration curves for each compound were prepared in control plasma containing internal standard. The concentrations in the PK samples were obtained using peak area ratio to the internal standard and the calibration curve regression analysis parameters. The methods were linear from 0.01 to 100 μg/mL; coefficients of determination R^2 range from 0.98 to 0.99.
The area under the curve (AUC), clearance (CL), volume of distribution (Vd), and terminal half-life were calculated using Phoenix WinNonlin 6.3 (Certara LP, St Louis, Mo., USA) noncompartmental analysis using uniform weighing. Half-lives were estimated from the linear portion of the initial or terminal phase of the concentration-time data by linear regression, where the slope of the line was the rate constant k and t1/2=ln 2/k.

[3] = HepG2 cells, cytotoxicity, read-out: XTT HepG2 IC50
[4] = vancomycin-resistant MRSA (vanA) isolate from Michigan, Tables 1 and 5, read-out: MIC
[5] = mecA positive, resistant to methicillin, oxacillin, tetracycline, Tables 1 and 5, read-out: MIC
[6] = NCTC7171, Table 1, read-out: MIC
[7] = NCTC7171, Table 3.1, compounds of Schemes 2-4, read-out: E. faecium NCTC 7171 MIC
[8] = ATCC29213, Table 3.1 and SAR text, compounds of Schemes 2-4, read-out: S. aureus ATCC 29213 MIC
[9] = ATCC29213, quality-control, methicillin-susceptible strain, Tables 1 and 5, read-out: MIC
[10] = single iv dose at 20 mg/kg, mice

| Compound | IC50 (HepG2 cells; [3]) [µg/mL] | MIC (S. aureus VRS1; [4]) [µg/mL] | MIC (S. pyogenes ATCC 49399; Table 1, read-out: MIC) [µg/mL] | MIC (S. aureus NRS100 (COL); [5]) [µg/mL] | MIC (B. cereus ATCC 13061; Tables 1 and 5, read-out: MIC) [µg/mL] | MIC ([1]; Tables 1 and 5, read-out: MIC) [µg/mL] | MIC (S. epidermis ATCC 35547; Tables 1 and 5, read-out: MIC) [µg/mL] | MIC (S. oralis ATCC 9811; Table 1, read-out: MIC) [µg/mL] | MIC (E. faecium NCTC 7171; [6]) [µg/mL] | MIC (E. faecium NCTC 7171; [7]) [µg/mL] | MIC (S. aureus ATCC 29213; [8]) [µg/mL] | MIC (S. aureus ATCC 29213; [9]) [µg/mL] | AUC0-8 h [2, 10] [µg·min/mL] | CL [2, 10] [mL/min/kg] | other results |
| --- | --- | --- | --- | --- | --- | --- | --- | --- | --- | --- | --- | --- | --- | --- | --- |
| Oc1ccc(-c2nc(-c3ccc(Oc4ccc(C(F)(F)F)cc4)cc3)no2)cc1 [Compound 1] | 25.8 (≈ 64.8 µM) | 2 (≈ 5.02 µM) | 32 (≈ 80.3 µM) | 2 (≈ 5.02 µM) | 2 (≈ 5.02 µM) | 2 (≈ 5.02 µM) | 2 (≈ 5.02 µM) | 32 (≈ 80.3 µM) | 2 (≈ 5.02 µM) | 1 (≈ 2.51 µM) | 1 (≈ 2.51 µM) | 2 (≈ 5.02 µM) |  |  | AUC(0-t) ([2]; ICR, mouse, plasma, compound 1 at 50 mg/kg iv, read-out: AUC0-8 h): 44200 ng·h/mL; CL ([2]; compound 1 at 50 mg/kg iv): 18.9^c mL/min/kg |
| FC(F)(F)c1ccc(Oc2ccc(-c3noc(-c4n[nH]cc4Cl)n3)cc2)cc1 [Compound 60b, 5-(4-Chloro-1H-pyrazol-3-yl)-3-(4-(4-(trifluoromethyl)phenoxy)phenyl)-1,2,4-oxadiazole] | 24.1 ± 1.6 (≈ 59.3 µM) | 1 to 2 (≈ 2.46 to 4.92 µM) | > 128 | > 128 | > 128 | > 128 | > 128 | > 128 | 16 (≈ 39.3 µM) | 2 (≈ 4.92 µM) | 1 (≈ 2.46 µM) |  | 910 | 22.0 |  |
| Fc1ccc(Oc2ccc(-c3noc(-c4n[nH]cc4Cl)n3)cc2)cc1 [Compound 60c, 5-(4-Chloro-1H-pyrazol-3-yl)-3-(4-(4-fluorophenoxy)phenyl)-1,2,4-oxadiazole] | 18.2 ± 2.9 (≈ 51 µM) | 1 (≈ 2.8 µM) | > 128 | > 128 | > 128 | > 128 | > 128 | > 128 | 32 (≈ 89.7 µM) | 8 (≈ 22.4 µM) | 0.5 (≈ 1.4 µM) | 1 (≈ 2.8 µM) | 446 | 44.9 |  |
| CC(C)Nc1c[nH]nc1-c1nc(-c2ccc(Oc3ccc(C(F)(F)F)cc3)cc2)no1 [Compound 65b, N-Isopropyl-3-(3-(4-(4-(trifluoromethyl)phenoxy)phenyl)-1,2,4-oxadiazol-5-yl)-1H-pyrazol-4-amine] |  |  |  |  |  |  |  |  |  |  |  |  | 1313 | 15.2 | IC50 (HepG2 cells; HepG2, read-out: XTT HepG2 IC50): 3.9 ± 0.8 µg/mL (≈ 9.08 µM); MIC (S. aureus VRS1; MRSA): 1 µg/mL (≈ 2.33 µM); MIC (S. pyogenes ATCC 49399): > 128 µg/mL; MIC (S. aureus NRS100 (COL)): > 128 µg/mL; MIC (B. cereus ATCC 13061): > 128 µg/mL; MIC [1]: > 128 µg/mL; MIC (S. epidermis ATCC 35547): > 128 µg/mL; MIC (S. oralis ATCC 9811): > 128 µg/mL; MIC (E. faecium NCTC 7171; NCTC7171): 32 µg/mL (≈ 74.5 µM); MIC (E. faecium NCTC 7171; NCTC7171, read-out: E. faecium NCTC 7171 MIC): > 128 µg/mL; MIC (S. aureus ATCC 29213; ATCC29213): 0.5 µg/mL (≈ 1.16 µM); MIC (S. aureus ATCC 29213; ATCC29213, read-out: S. aureus ATCC 29213 MIC): 0.5 µg/mL (≈ 1.16 µM) |
| C#Cc1c[nH]nc1-c1nc(-c2ccc(Oc3ccc(C(F)(F)F)cc3)cc2)no1 [Compound 66b, 5-(4-Ethynyl-1H-pyrazol-3-yl)-3-(4-(4-(trifluoromethyl)phenoxy)phenyl)-1,2,4-oxadiazole] | 9.8 ± 4 (≈ 24.7 µM) | 1 (≈ 2.52 µM) | > 128 | > 128 | > 128 | > 128 | > 128 | > 128 |  | > 128 | 0.25 (≈ 0.631 µM) |  | 8261 | 2.4 | S. aureus ATCC 29213 MIC (S. aureus ATCC 29213; Table 3.1, compounds of Schemes 2-4): 0.25 µg/mL |
| FC(F)(F)c1ccc(Oc2ccc(-c3noc(-c4ccc5[nH]ccc5c4)n3)cc2)cc1 [Compound 75b, 5-(1H-Indol-5-yl)-3-(4-(4-(trifluoromethyl)phenoxy)phenyl)-1,2,4-oxadiazole] | 75.7 ± 7.3 (≈ 180 µM) | 1 (≈ 2.37 µM) | 64 (≈ 152 µM) |  | 16 (≈ 38 µM) | 8 (≈ 19 µM) |  | 128 (≈ 304 µM) | 2 to 4 (≈ 4.75 to 9.49 µM) | 2 (≈ 4.75 µM) | 4 (≈ 9.49 µM) | 2 (≈ 4.75 µM) | 1283 | 15.2 | fold less toxic than the lead 1 (HepG2 cells; XTT assay, HepG2 cells): 5 fold |
| FC(F)(F)c1ccc(Oc2ccc(-c3noc(-c4c[nH]cn4)n3)cc2)cc1 [Compound 76b, 5-(1H-Imidazol-4-yl)-3-(4-(4-(trifluoromethyl)phenoxy)phenyl)-1,2,4-oxadiazole] | 31.5 ± 0.5 (≈ 84.6 µM) | 1 (≈ 2.69 µM) | 128 (≈ 344 µM) | 32 (≈ 86 µM) |  | 16 (≈ 43 µM) | 32 (≈ 86 µM) | > 128 | 8 to 16 (≈ 21.5 to 43 µM) | 4 (≈ 10.7 µM) | 2 (≈ 5.37 µM) |  | 2054 | 9.7 |  |
